{"source": "patent US4514413A", "about": "“Gastric acid secretion inhibiting N-(imidazol-1-ylalkyl)thiourea derivatives” (BASF Aktiengesellschaft, priority 1982, dated 1985)", "key": {"histamine H2 receptor": {"molecular_target": "T1, histamine H2 receptor (Rattus norvegicus, UniProt P25102)", "T1 construct": "In male Sprague-Dawley rats (weight 210-310 g) which have been anesthetized with urethane; from tissue; host or cells: whole animal in vivo: anesthetized male Sprague-Dawley rats", "T1 sequence (P25102 whole entry)": "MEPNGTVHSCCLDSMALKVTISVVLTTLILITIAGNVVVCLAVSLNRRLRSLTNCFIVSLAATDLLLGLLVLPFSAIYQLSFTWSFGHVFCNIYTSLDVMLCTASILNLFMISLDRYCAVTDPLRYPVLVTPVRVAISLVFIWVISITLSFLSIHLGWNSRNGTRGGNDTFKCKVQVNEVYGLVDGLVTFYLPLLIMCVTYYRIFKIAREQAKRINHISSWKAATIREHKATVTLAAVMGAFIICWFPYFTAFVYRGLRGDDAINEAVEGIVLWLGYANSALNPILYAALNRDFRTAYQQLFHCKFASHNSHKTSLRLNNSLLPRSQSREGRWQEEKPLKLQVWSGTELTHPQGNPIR", "assay": "Inhibition of the dimaprit-induced lowering of the blood pressure (histamine H2 receptor-blocking action)", "type": "in vivo, male Sprague-Dawley rats", "conditions": "for R.A. (relative activity), inhibition of the dimaprit-induced lowering of the blood pressure / inhibition of dimaprit-induced lowering of the blood pressure (in words): rat", "method": "The substances tested were administered intravenously 5 minutes before the dimaprit injection. The ED 50% is determined as the dose which inhibits the dimaprit-induced lowering of the blood pressure by 50% (Table 1)."}, "[1]": {"tested_on": "secretion of gastric acid", "assay": "Inhibition of the gastric secretion in the rat (pH at the surface of the gastric mucous membrane)", "type": "in vivo, female Sprague-Dawley rats", "conditions": "for R.A. (relative activity), inhibition of the gastric secretion: cimetidine = 1.00, subcutaneous administration; for ED 0.75 (dose which increases the pH by 0.75 on average compared with untreated control animals): subcutaneous administration, 1 hour pretreatment, 48 h fasted", "method": "Inhibition of the secretion of gastric acid results in an increase in the pH of the gastric mucus membrane. This is investigated on groups of 5 conscious female Sprague-Dawley rats weighing 160-180 g. The animals receive no food for 48 hours (water ad libitum), and are pretreated subcutaneously with various doses of the test substances. […] The dose which increases the pH by 0.75 on average compared with untreated control animals is determined, as the ED 0.75, from the linear regression between the logarithms of the applied doses and the increase in the pH (Table 2)."}, "[2]": {"conditions": "cimetidine = 1.00, urethane anesthesia, intravenous administration"}, "[3]": {"conditions": "urethane anesthesia, intravenous administration"}}}
{"smiles": "CN/C(=N/CCSCc1nc[nH]c1C)NC#N", "note": "[Cimetidine, reference compound]", "values": [{"measurement": "R.A. (relative activity), inhibition of the dimaprit-induced lowering of the blood pressure", "setting": "histamine H2 receptor; [2]", "value": 1.00}, {"measurement": "inhibition of dimaprit-induced lowering of the blood pressure (in words)", "setting": "histamine H2 receptor; [3]", "value": "specific and dose-dependent inhibition"}, {"measurement": "R.A. (relative activity), inhibition of the gastric secretion", "setting": "[1]", "value": 1.00}, {"measurement": "ED 0.75 (dose which increases the pH by 0.75 on average compared with untreated control animals)", "setting": "[1]", "value": 0.45, "unit": "mg/kg"}]}
{"smiles": "Cc1nccn1CCCNC(=S)NCCSCc1ccc(CN(C)C)o1.O=C(O)C(=O)O.O=C(O)C(=O)O", "note": "[Example No. 1, N-[3-(2-methylimidazol-1-yl)-propyl]-N'-{2-[[5-(N,N-dimethylaminomethyl)-furan-2-yl]-methylthio]-ethyl}-thiourea dioxalate]", "values": [{"measurement": "R.A. (relative activity), inhibition of the dimaprit-induced lowering of the blood pressure", "setting": "histamine H2 receptor; in vivo, iv", "value": 23.91}, {"measurement": "R.A. (relative activity), inhibition of the gastric secretion", "setting": "[1]", "value": 8.65}, {"measurement": "ED 0.75 (dose which increases the pH by 0.75 on average compared with untreated control animals)", "setting": "[1]; in mg/kg", "value": 0.052}, {"measurement": "times more effective than cimetidine", "setting": "[1]; vs cimetidine, inhibition of gastric acid secretion, subcutaneous", "value": 8.7, "unit": "times"}, {"measurement": "times more effective than ranitidine", "setting": "[1]; vs ranitidine, inhibition of gastric acid secretion, subcutaneous", "value": 1.7, "unit": "times"}]}
{"smiles": "CC(C)c1nccn1CCCNC(=S)NCCSCc1ccc(CN(C)C)o1", "note": "[Example No. 2, N-[3-(2-isopropylimidazol-1-yl)-propyl]-N'-{2-[[5-(N,N-dimethylaminomethyl)-furan-2-yl]-methylthio]-ethyl}-thiourea]", "values": [{"measurement": "R.A. (relative activity), inhibition of the dimaprit-induced lowering of the blood pressure", "setting": "histamine H2 receptor; [2]", "value": 22.00}]}
{"smiles": "CCc1nccn1CCCNC(=S)NCCSCc1ccc(CN(C)C)o1", "note": "[Example No. 3, N-[3-(2-ethylimidazol-1-yl)-propyl]-N'-{2-[[5-(N,N-dimethylaminomethyl)-furan-2-yl]-methylthio]-ethyl}-thiourea dioxalate]", "values": [{"measurement": "R.A. (relative activity), inhibition of the dimaprit-induced lowering of the blood pressure", "setting": "histamine H2 receptor; [2]", "value": 12.94}]}
{"smiles": "CCCc1nccn1CCCNC(=S)NCCSCc1ccc(CN(C)C)o1", "note": "[Example No. 4]", "values": [{"measurement": "R.A. (relative activity), inhibition of the dimaprit-induced lowering of the blood pressure", "setting": "histamine H2 receptor; [2]", "value": 10.00}]}
{"smiles": "Cc1nc(C)n(CCCNC(=S)NCCSCc2ccc(CN(C)C)o2)c1C", "note": "[Example No. 8, N[3-(2,4,5-trimethylimidazol-1-yl)-propyl]-N'{2-[[5-(N,Ndimethylamino-methyl)-furan-2-yl]-methylthio]-ethyl}-thiourea]", "values": [{"measurement": "R.A. (relative activity), inhibition of the dimaprit-induced lowering of the blood pressure", "setting": "histamine H2 receptor; [2]", "value": 26.19}]}
{"smiles": "CCc1ncc(C)n1CCCNC(=S)NCCSCc1ccc(CN(C)C)o1", "note": "[Example No. 9]", "values": [{"measurement": "R.A. (relative activity), inhibition of the dimaprit-induced lowering of the blood pressure", "setting": "histamine H2 receptor; [2]", "value": 10.00}]}
{"smiles": "CNC(=C[N+](=O)[O-])NCCSCc1ccc(CN(C)C)o1", "note": "[Ranitidine, reference compound]", "values": [{"measurement": "R.A. (relative activity), inhibition of the dimaprit-induced lowering of the blood pressure", "setting": "histamine H2 receptor; in vivo, iv", "value": 10.48}, {"measurement": "inhibition of dimaprit-induced lowering of the blood pressure (in words)", "setting": "histamine H2 receptor; [3]", "value": "specific and dose-dependent inhibition"}, {"measurement": "R.A. (relative activity), inhibition of the gastric secretion", "setting": "[1]", "value": 5.23}, {"measurement": "ED 0.75 (dose which increases the pH by 0.75 on average compared with untreated control animals)", "setting": "[1]; in mg/kg", "value": 0.086}]}
{"smiles": "CN(C)CCCSC(=N)N", "note": "[dimaprit, S-[3-(N,N-dimethylamino)-propyl]-isothiourea, reference compound]", "values": [{"measurement": "average lowering of the blood pressure", "setting": "histamine H2 receptor; dimaprit 3.16 mg intravenously, initial pressures 100±1.1 mm Hg, N=70", "value": "27±0.7", "unit": "mm Hg"}]}
